Molecular target: T1, Acaa2 (Mus musculus, UniProt Q8BWT1)
T1 sequence (Q8BWT1 1-397): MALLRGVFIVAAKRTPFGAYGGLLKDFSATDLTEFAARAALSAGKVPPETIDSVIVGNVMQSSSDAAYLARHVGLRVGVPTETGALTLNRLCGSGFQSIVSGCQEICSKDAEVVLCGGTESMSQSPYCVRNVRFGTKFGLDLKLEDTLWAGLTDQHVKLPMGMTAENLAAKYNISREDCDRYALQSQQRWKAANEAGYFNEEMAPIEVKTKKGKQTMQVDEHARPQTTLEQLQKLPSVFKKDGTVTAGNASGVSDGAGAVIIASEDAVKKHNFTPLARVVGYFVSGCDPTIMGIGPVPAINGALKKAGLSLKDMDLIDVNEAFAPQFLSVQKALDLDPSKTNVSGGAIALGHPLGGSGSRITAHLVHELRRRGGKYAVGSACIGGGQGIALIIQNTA
Experiment: competition against IAyne labelling, in-gel fluorescence
Format: biochemical
Conditions: covalent; lysate of overexpressing HEK293T; 30 min preincubation

N#Cc1c(Cl)c(Cl)c(Cl)c(C#N)c1Cl [chlorothalonil]
% reduction in IAyne labeling at 100 nM: 9.4 ± 1.2%

— paper PMC4621755 (Chemistry & biology, 2015)
